Patent publication US10645927B2, “Antimicrobial wipe” (Carefusion 2200, Inc., priority 2015, dated 2020)
Counter-ions that a name gives are not always drawn. Marks after values point to notes of the source that are not given here.

System: Staphylococcus aureus ATCC 29213
Experiment: Bactericidal activity by time kill method
Type: cell-based
Details: for Average Log: Baseline 7.123; for concentration required to deliver >3 log reduction in viable count: within 30 seconds of contact time
Protocol: Multiple surfactants in solution formulations were tested for use with the wipes. Effects of individual excipients such as phosphate buffer, polysorbate 20, nonoxynol-9, Cremophor® RH-40, dimethicone, and combinations of these products were investigated to determine the possibility of adverse effects on the antimicrobial efficacy of octenidine dihydrochloride. Bactericidal activities of octenidine dihydrochloride alone and in combinations with various excipients (Table 11) were tested by a time kill method using Staphylococcus aureus ATCC 29213 as test organism (Table 12).
Neutralizing effects of two similar surfactants, 0.5% Cremophor® RH40 and 0.5% polysorbate 20, on the bactericidal activity of octenidine dihydrochloride were tested using the Staphylococcus aureus ATCC 29213 as test organism (Table 13 and 14).

[1] = OCT 20 PPM, 0.5% Cremophor ® RH40, 30 seconds
[2] = OCT 20 PPM, 0.5% Polysorbate 20, 30 seconds
[3] = OCT 20 PPM, Aqueous, 30 seconds
[4] = OCT 100 PPM, 0.5% Cremophor ® RH40, 30 seconds
[5] = OCT 100 PPM, 0.5% Polysorbate 20, 30 seconds
[6] = OCT 100 PPM, Aqueous, 30 seconds
[7] = OCT 500 PPM, 0.5% Cremophor ® RH40, 30 seconds
[8] = OCT 500 PPM, 0.5% Polysorbate 20, 30 seconds
[9] = OCT 500 PPM, Aqueous, 30 seconds
[10] = OCT 4000 PPM, Full base formulation with Cremophor ® RH40
[11] = OCT 4000 PPM, Full base formulation with Polysorbate 20 (Table 13)

CCCCCCCCN=c1ccn(CCCCCCCCCCn2ccc(=NCCCCCCCC)cc2)cc1 [OCT, octenidine dihydrochloride]
Log Reduction (OCT 2 PPM in 0.1% Nonoxynol-9 in water, 30 seconds): 1.52
Log Reduction (OCT 2 PPM in 0.25% Dimethicone in water, 30 seconds): 1.17
Log Reduction (OCT 2 PPM in 1.5% Polysorbate 20 in water, 30 seconds): 0.30
Log Reduction (OCT 2 PPM in Full base formulation with Nonoxynol-9 and Polysorbate 20 (Table 11), 30 seconds): 0.29
Log Reduction (OCT 2 PPM in Full base formulation with Polysorbate 20 (Table 11), 30 seconds): 0.04
Log Reduction (OCT 2 PPM in Phosphate Buffered Water, pH 6.0, 30 seconds): 1.39
Log Reduction (OCT 2 PPM in Water, contact time 30 seconds): 3.41
Log Reduction (OCT 20 PPM in 0.1% Nonoxynol-9 in water, 30 seconds): 2.94
Log Reduction (OCT 20 PPM in 0.25% Dimethicone in water, 30 seconds): 1.41
Log Reduction (OCT 20 PPM in 1.5% Polysorbate 20 in water, 30 seconds): 0.57
Log Reduction (OCT 20 PPM in Full base formulation with Nonoxynol-9 and Polysorbate 20 (Table 11), 30 seconds): 0.58
Log Reduction (OCT 20 PPM in Full base formulation with Polysorbate 20 (Table 11), 30 seconds): 0.35
Log Reduction (OCT 20 PPM in Phosphate Buffered Water, pH 6.0, 30 seconds): 2.87
Log Reduction (OCT 20 PPM in Water, contact time 30 seconds): 3.78
Average Log Reduction [1]: 0.740
Percent Reduction [1]: 81.808%
Average Log [1]: 6.383
Average Log Reduction [2]: 0.795
Percent Reduction [2]: 83.979%
Average Log [2]: 6.327
Average Log Reduction [3]: 5.123
Percent Reduction [3]: 99.999%
Average Log [3]: 2.000
Log Reduction (OCT 100 PPM in 0.1% Nonoxynol-9 in water, 30 seconds): 4.69
Log Reduction (OCT 100 PPM in 0.25% Dimethicone in water, 30 seconds): 1.67
Log Reduction (OCT 100 PPM in 1.5% Polysorbate 20 in water, 30 seconds): 1.01
Log Reduction (OCT 100 PPM in Full base formulation with Nonoxynol-9 and Polysorbate 20 (Table 11), 30 seconds): 0.60
Log Reduction (OCT 100 PPM in Full base formulation with Polysorbate 20 (Table 11), 30 seconds): 0.49
Log Reduction (OCT 100 PPM in Phosphate Buffered Water, pH 6.0, 30 seconds): 4.78
Log Reduction (OCT 100 PPM in Water, contact time 30 seconds): 4.65
Average Log Reduction [4]: 1.472
Percent Reduction [4]: 96.624%
Average Log [4]: 5.651
Average Log Reduction [5]: 1.205
Percent Reduction [5]: 93.767%
Average Log [5]: 5.917
Average Log Reduction [6]: 5.123
Percent Reduction [6]: 99.999%
Average Log [6]: 2.000
Log Reduction (OCT 500 PPM in 0.1% Nonoxynol-9 in water, 30 seconds): 5.12
Log Reduction (OCT 500 PPM in 0.25% Dimethicone in water, 30 seconds): 2.12
Log Reduction (OCT 500 PPM in 1.5% Polysorbate 20 in water, 30 seconds): 1.12
Log Reduction (OCT 500 PPM in Full base formulation with Nonoxynol-9 and Polysorbate 20 (Table 11), 30 seconds): 1.40
Log Reduction (OCT 500 PPM in Full base formulation with Polysorbate 20 (Table 11), 30 seconds): 0.76
Log Reduction (OCT 500 PPM in Phosphate Buffered Water, pH 6.0, 30 seconds): 5.12
Log Reduction (OCT 500 PPM in Water, contact time 30 seconds): 5.12
Average Log Reduction [7]: 5.123
Percent Reduction [7]: 99.999%
Average Log [7]: 2.000
Average Log Reduction [8]: 3.080
Percent Reduction [8]: 99.917%
Average Log [8]: 4.043
Average Log Reduction [9]: 5.123
Percent Reduction [9]: 99.999%
Average Log [9]: 2.000
Log Reduction (OCT 1000 PPM in Full base formulation with Nonoxynol-9 and Polysorbate 20, total kill, value is limit of detection): ≥ 3.94*
Log Reduction (OCT 2000 PPM in Full base formulation with Nonoxynol-9 and Polysorbate 20, total kill, value is limit of detection): ≥ 4.14*
Log Reduction (OCT 4000 PPM in Full base formulation with Nonoxynol-9 and Polysorbate 20, total kill, value is limit of detection): ≥ 4.14*
Average Log Reduction [10]: 4.123
Percent Reduction [10]: 99.992%
Average Log [10]: 3.000
Average Log Reduction [11]: 4.123
Percent Reduction [11]: 99.992%
Average Log [11]: 3.000
percent reduction in viable count at 2 ppm (Staphylococcus aureus, ATCC29213, octenidine dihydrochloride alone, 2 PPM, contact time of 30 seconds): > 99.9%
concentration required to show 99.9% reduction in viable count (dissolved in pH 6.0 phosphate buffered water): > 20 PPM
microbicidal activity in the full base formulation (higher than 1000 PPM of octenidine dihydrochloride, full base formulation of Table 11): rapidly microbicidal
concentration required for 99.9% reduction relative to the concentration in water (pH 6.0 phosphate buffered water vs water): > 10 times
concentration required to deliver >3 log reduction in viable count (with 0.5% Cremophor® RH40): 500 PPM
concentration required to deliver >3 log reduction in viable count (with 0.5% polysorbate 20): 500 PPM
